According to US20240285670A1, “THERAPEUTIC TREATMENT OF TUMORS BY BLOCKING THE HEME SYNTHESIS-EXPORT AXIS” (Università degli Studi di Torino, priority 2021, published 2024):

Tests used:
SKCO1 cells = test: Mitochondrial ATP levels in SKCO1 cells; format: cell-based, human; conditions: FLVCR1a-silenced vs scramble shRNA SKCO1 cells
Source text: (A, C, E) Activities of the mitochondrial electron transport chain complexes I-IV. FLVCR1a-silenced Caco2 (A), SKCO1 (C) or C80 cells (E) are compared to cells expressing a scramble shRNA. Results were expressed as nmol NAD^+/min/mg mitochondrial protein for complex I, nmol reduced cytochrome c/min/mg mitochondrial protein for complexes II-III, nmol oxidized cytochrome c/min/mg mitochondrial protein for complex IV. Data represent mean±SEM, n=3. For statistical analyses, an unpaired Student's t-test was used; *=p<0.05, **=p<0.01. (B, D, F) Mitochondrial ATP levels measured by a bioluminescent assay kit. FLVCR1a-silenced Caco2 (B), SKCO1 (D) or C80 cells (F) are compared to cells expressing a scramble shRNA. Results are expressed as nmol/mg mitochondrial proteins. […] Results were expressed as nmol NAD^+/min/mg mitochondrial protein for complex I, nmol reduced cytochrome c/min/mg mitochondrial protein for complexes II-III, nmol oxidized cytochrome c/min/mg mitochondrial protein for complex IV. […] (H) Mitochondrial ATP levels measured by a bioluminescent assay kit in Caco2 cells overexpressing FLVCR1a (indicated as FLVCR1a+) compared to cells stably transduced with an empty vector. Results are expressed as nmol/mg mitochondrial proteins. […]
ATP levels in mitochondria extracts were assessed by the ATP Bioluminescent Assay Kit (Sigma-Aldrich, St. Louis, MO USA, catalog n° FLAA). […]

SH-SY5Y cells = test: Activity of mitochondrial ETC complexes I-IV in SHSY-5Y cells; format: cell-based, human; conditions: FLVCR1a-silenced vs scramble shRNA SH-SY5Y cells
Source text: Results were expressed as nmol NAD*/min/mg mitochondrial protein for complex I, nmol reduced cytochrome c/min/mg mitochondrial protein for complexes II-III, nmol oxidized cytochrome c/min/mg mitochondrial protein for complex IV. Data represent mean±SEM, n=3. For statistical analyses, an unpaired Student's t-test was used; *=p<0.05, **=p<0.01, *=p<0.001. […] Results are expressed as nmol/mg mitochondrial proteins. Data represent mean±SEM, n=3. For statistical analyses, an unpaired Student's t-test was used; *=p<0.05. […] Results are expressed as pmol CO2/h/mg protein. Data represent mean±SEM, n=3. For statistical analyses, an unpaired Student's t-test was used; **=p<0.01. […] Results were expressed as nmol NAD*/min/mg mitochondrial protein for complex I, nmol reduced cytochrome c/min/mg mitochondrial protein for complexes II-III, nmol oxidized cytochrome c/min/mg mitochondrial protein for complex IV. […] Results are expressed as nmol/mg mitochondrial proteins. […] Results are expressed as pmol CO2/h/mg protein. […] (H) TCA cycle enzymes activities are reported in boxes and expressed as mU/mg mitochondrial proteins. […] Results were expressed as nmol NAD^+/min/mg mitochondrial protein for complex I, nmol reduced cytochrome c/min/mg mitochondrial protein for complexes II-III, nmol oxidized cytochrome c/min/mg mitochondrial protein for complex IV. […] Results are expressed as nmol/mg mitochondrial proteins. […]

Q: Which “mitochondrial ATP levels” value (SKCO1 cells) does the source give for “FLVCR1a shRNA: shRNA specifically down-regulating FLVCR1a without targeting FLVCR1b; pLKO.1 lentiviral clone TRCN0000059599, antisense SEQ ID No.: 2 (antisense TTGCTAATGATGCTGTACTGG; sense CCAGTACAGCATCATTAGCAA)” here?
A: The value was “increased”.

Q: And the “activity of ETC complexes” value (SH-SY5Y cells)?
A: The value was “enhanced activity of ETC complexes”.
